Laboratory results reported in PubChem BioAssay (NCI).
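Step 1: Grow cells in 96-well plates. Step 2: Expose to compound for 48 hours at 5 concentrations. Step 3: Interpolate endpoints linearly; if unreached, use highest concentration. The concentration for full growth arrest is given as TGI.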

Experiments:
Assay in all cases: DTP human tumour cell line panel, 48 h
[1] = test system: OVCAR-8 ovarian
[2] = test system: SK-MEL-28 melanoma
[3] = test system: 786-0 renal
[4] = test system: RPMI-8226 leukemia
[5] = test system: MOLT-4 leukemia
[6] = test system: UACC-257 melanoma
[7] = test system: HOP-18 NSCLC
[8] = test system: SR leukemia
[9] = test system: LOX IMVI melanoma
[10] = test system: OVCAR-3 ovarian
[11] = test system: KM12 colon
[12] = test system: RXF 393 renal
[13] = test system: NCI-H460 lung
[14] = test system: HT29 colon
[15] = test system: RXF-631 renal
[16] = test system: CCRF-CEM leukemia
[17] = test system: SF-295 CNS
[18] = test system: A549 NSCLC
[19] = test system: IGROV1 ovarian
[20] = test system: LXFL 529 NSCLC
[21] = test system: SNB-78 CNS
[22] = test system: HOP-92 NSCLC
[23] = test system: NCI-H226 lung
[24] = test system: SK-OV-3 ovarian
[25] = test system: NCI-H23 lung
[26] = test system: SNB-19 CNS
[27] = test system: HCC-2998 colon
[28] = test system: HCT-116 colon
[29] = test system: MALME-3M melanoma
[30] = test system: M14 melanoma
[31] = test system: XF 498 CNS
[32] = test system: DLD-1 colon
[33] = test system: HOP-62 NSCLC
[34] = test system: CAKI-1 renal
[35] = test system: U251 CNS
[36] = test system: KM20L2 colon
[37] = test system: TK-10 renal
[38] = test system: SNB-75 CNS
[39] = test system: SN12C renal
[40] = test system: K-562 leukemia
[41] = test system: DMS 273 small cell lung
[42] = test system: COLO 205 colon
[43] = test system: EKVX NSCLC
[44] = test system: NCI-H522 lung
[45] = test system: OVCAR-5 ovarian
[46] = test system: DMS 114 small cell lung
[47] = test system: SK-MEL-2 melanoma
[48] = test system: SF-268 CNS
[49] = test system: HCT-15 colon
[50] = test system: OVCAR-4 ovarian
[51] = test system: UO-31 renal
[52] = test system: SF-539 CNS
[53] = test system: UACC-62 melanoma
[54] = test system: SW-620 colon
[55] = test system: ACHN renal
[56] = test system: M19-MEL melanoma
[57] = test system: SK-MEL-5 melanoma
[58] = test system: A498 renal
[59] = test system: HL-60(TB) leukemia

O=C(/C=C/c1ccccc1O)C(c1ccccc1)c1ccccc1
TGI [1]: > 100 µM
TGI [2]: > 100 µM
TGI [3]: > 100 µM
TGI [4]: > 100 µM
TGI [5]: > 100 µM
TGI [6]: > 100 µM
TGI [7]: > 100 µM
TGI [8]: > 100 µM
TGI [9]: 62.3 µM
TGI [10]: > 100 µM
TGI [11]: > 100 µM
TGI [12]: > 100 µM
TGI [13]: > 100 µM
TGI [14]: > 100 µM
TGI [15]: > 100 µM
TGI [16]: > 100 µM
TGI [17]: > 100 µM
TGI [18]: > 100 µM
TGI [19]: > 100 µM
TGI [20]: > 100 µM
TGI [21]: > 100 µM
TGI [22]: > 100 µM
TGI [23]: > 100 µM
TGI [24]: > 100 µM
TGI [25]: > 100 µM
TGI [26]: > 100 µM
TGI [27]: > 100 µM
TGI [28]: > 100 µM
TGI [29]: > 100 µM
TGI [30]: > 100 µM
TGI [31]: > 100 µM
TGI [32]: > 100 µM
TGI [33]: > 100 µM
TGI [34]: > 100 µM
TGI [35]: > 100 µM
TGI [36]: > 100 µM
TGI [37]: > 100 µM
TGI [38]: 75.1 µM
TGI [39]: > 100 µM
TGI [40]: > 100 µM
TGI [41]: > 100 µM
TGI [42]: > 100 µM
TGI [43]: > 100 µM
TGI [44]: > 100 µM
TGI [45]: > 100 µM
TGI [46]: > 100 µM
TGI [47]: > 100 µM
TGI [48]: > 100 µM
TGI [49]: > 100 µM
TGI [50]: > 100 µM
TGI [51]: > 100 µM
TGI [52]: > 100 µM
TGI [53]: > 100 µM
TGI [54]: 27.6 µM
TGI [55]: > 100 µM
TGI [56]: > 100 µM
TGI [57]: > 100 µM
TGI [58]: > 100 µM

COc1ccc(O)cc1C=O
TGI [1]: > 100 µM
TGI [2]: > 100 µM
TGI [3]: > 100 µM
TGI [4]: > 100 µM
TGI [5]: > 100 µM
TGI [6]: > 100 µM
TGI [7]: > 100 µM
TGI [8]: 92.3 µM
TGI [9]: > 100 µM
TGI [10]: > 100 µM
TGI [11]: > 100 µM
TGI [12]: > 100 µM
TGI [13]: > 100 µM
TGI [14]: > 100 µM
TGI [15]: > 100 µM
TGI [16]: > 100 µM
TGI [17]: > 100 µM
TGI [18]: > 100 µM
TGI [19]: > 100 µM
TGI [20]: > 100 µM
TGI [21]: > 100 µM
TGI [22]: > 100 µM
TGI [24]: > 100 µM
TGI [59]: 54.9 µM
TGI [25]: > 100 µM
TGI [26]: > 100 µM
TGI [27]: > 100 µM
TGI [28]: > 100 µM
TGI [29]: > 100 µM
TGI [30]: > 100 µM
TGI [31]: > 100 µM
TGI [32]: > 100 µM
TGI [33]: > 100 µM
TGI [35]: > 100 µM
TGI [36]: > 100 µM
TGI [37]: > 100 µM
TGI [39]: > 100 µM
TGI [40]: > 100 µM
TGI [41]: > 100 µM
TGI [42]: > 100 µM
TGI [43]: > 100 µM
TGI [45]: > 100 µM
TGI [46]: > 100 µM
TGI [48]: > 100 µM
TGI [49]: > 100 µM
TGI [50]: > 100 µM
TGI [51]: > 100 µM
TGI [52]: > 100 µM
TGI [53]: > 100 µM
TGI [54]: > 100 µM
TGI [55]: > 100 µM
TGI [56]: > 100 µM
TGI [57]: > 100 µM
TGI [58]: > 100 µM

O=S(=O)(N/N=C/c1c(Cl)cccc1Cl)c1ccccc1
TGI [1]: > 100 µM
TGI [2]: > 100 µM
TGI [4]: > 100 µM
TGI [5]: > 100 µM
TGI [6]: > 100 µM
TGI [7]: > 100 µM
TGI [8]: > 100 µM
TGI [9]: > 100 µM
TGI [10]: > 100 µM
TGI [11]: > 100 µM
TGI [12]: > 100 µM
TGI [13]: > 100 µM
TGI [14]: > 100 µM
TGI [15]: > 100 µM
TGI [16]: > 100 µM
TGI [17]: > 100 µM
TGI [18]: > 100 µM
TGI [19]: > 100 µM
TGI [20]: > 100 µM
TGI [21]: > 100 µM
TGI [22]: > 100 µM
TGI [23]: > 100 µM
TGI [24]: > 100 µM
TGI [59]: 70.8 µM
TGI [25]: > 100 µM
TGI [27]: > 100 µM
TGI [28]: > 100 µM
TGI [29]: > 100 µM
TGI [30]: > 100 µM
TGI [31]: > 100 µM
TGI [32]: > 100 µM
TGI [33]: > 100 µM
TGI [35]: > 100 µM
TGI [36]: > 100 µM
TGI [37]: > 100 µM
TGI [38]: > 100 µM
TGI [39]: > 100 µM
TGI [40]: > 100 µM
TGI [41]: > 100 µM
TGI [42]: > 100 µM
TGI [43]: > 100 µM
TGI [45]: > 100 µM
TGI [46]: > 100 µM
TGI [47]: > 100 µM
TGI [48]: > 100 µM
TGI [49]: > 100 µM
TGI [50]: > 100 µM
TGI [51]: > 100 µM
TGI [52]: > 100 µM
TGI [53]: > 100 µM
TGI [54]: > 100 µM
TGI [56]: > 100 µM
TGI [57]: > 100 µM
TGI [58]: > 100 µM
